Patent US9682976B2, “Protein kinase C inhibitors and uses thereof” (Rigel Pharmaceuticals, Inc., priority 2012, dated 2017)
pEC50: −log10 of the molar value.

Tested on: PKC mediated IL-2 production
Assay: IL-2 ELISA, human primary T cell, anti CD3+CD28+
Assay type: cell-based
Conditions: T-cell, human primary T cells stimulated with αCD3 and αCD28, 24 hours
Method in brief: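 Human peripheral blood T cells, pre-expanded with αCD3/αCD28 and IL-2 and then washed free of IL-2, were pre-incubated with compound for 1 h at 37° C. They were then stimulated on plates coated with […] αCD3 and 5 μg/ml αCD28, or with 0.5 ng/ml PMA plus 0.1 uM ionomycin in the counter assay. IL-2 in supernatants was measured by ELISA after 24 h.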

Row | SMILES | pEC50 (Homo sapiens, 24 h) | pEC50
1 | C=Cc1cc(F)c(Nc2ncc(F)c(N[C@@H]3C[C@@H]4CCCN4C(C)(C)C3)n2)cc1-n1nnn(C)c1=O [Compound 92, 1-(5-(4-((7R,8aS)-octahydro-5,5-dimethylindolizin-7-ylamino)-5-fluoropyrimidin-2-ylamino)-4-fluoro-2-vinylphenyl)-4-methyl-1H-tetrazol-5(4H)-one] | > 7.00 | 
2 | CC(=O)O[C@H]1[C@H](OC(C)=O)C(Oc2cc(F)c(Nc3ncc(F)c(N[C@@H]4C[C@@H]5CCCN5C(C)(C)C4)n3)cc2-n2nnn(C)c2=O)OC[C@H]1OC(C)=O (stereo partly drawn) [Compound 191, (3S,4R,5R)-2-(4-((4-(((7R,8aS)-5,5-dimethyloctahydroindolizin-7-yl)amino)-5-fluoropyrimidin-2-yl)amino)-5-fluoro-2-(4-methyl-5-oxo-4,5-dihydro-1H-tetrazol-1-yl)phenoxy)tetrahydro-2H-pyran-3,4,5-triyl triacetate] | 5.00 to 6.00 | 
3 | CO[C@@H](C)COc1cc(F)c(Nc2ncc(F)c(N[C@@H]3C[C@@H]4CCCN4C(C)(C)C3)n2)cc1-n1nnn(C)c1=O [Compound 233, 1-(5-((4-(((7R,8aS)-5,5-dimethyloctahydroindolizin-7-yl)amino)-5-fluoropyrimidin-2-yl)amino)-4-fluoro-2-((S)-2-methoxypropoxy)phenyl)-4-methyl-1,4-dihydro-5H-tetrazol-5-one] | 6.30 to 7.00 | 
4 | C[C@H](CO)Oc1cc(F)c(Nc2ncc(F)c(N[C@@H]3C[C@@H]4CCCN4C(C)(C)C3)n2)cc1-n1nnn(C)c1=O [Compound 99] | > 7.00 | 
5 | CC1(C)C[C@H](Nc2nc(Nc3cccc(-n4nnnc4S)c3)ncc2F)C[C@@H]2CCCN21 [Compound 259, 1-(3-(4-((7R,8aS)-octahydro-5,5-dimethylindolizin-7-ylamino)-5-fluoropyrimidin-2-ylamino)phenyl)-1H-tetrazole-5-thiol] | 5.00 to 6.00 | 
6 | [2H]C([2H])(O)C([2H])([2H])Oc1ccc(Nc2ncc(F)c(N[C@@H]3C[C@@H]4CCCN4C(C)(C)C3)n2)cc1C#N [Compound 210, 5-((4-(((7R,8aS)-5,5-dimethyloctahydroindolizin-7-yl)amino)-5-fluoropyrimidin-2-yl)amino)-2-(2-hydroxyethoxy-1,1,2,2-d4)benzonitrile] | > 7.00 | 
7 | CC1(C)C[C@H](N(CC(O)CO)c2nc(Nc3ccc(OCC(O)CO)c(C#N)c3)ncc2F)C[C@@H]2CCCN21 (some centres unmarked) [Compound 211] |  | 5.00 to 6.00
8 | Cn1nnn(-c2cc(Nc3ncc(F)c(N[C@@H]4C[C@@H]5CCCN5C(C)(C)C4)n3)c(F)cc2C#N)c1=O [Compound 98, 4-(4-((7R,8aS)-octahydro-5,5-dimethylindolizin-7-ylamino)-5-fluoropyrimidin-2-ylamino)-5-fluoro-2-(4,5-dihydro-4-methyl-5-oxotetrazol-1-yl)benzonitrile] | 6.30 to 7.00 | 
9 | CC1(C)C[C@H](Nc2nc(Nc3ccc(Cl)c(-n4nnnc4C4CC4)c3)ncc2F)C[C@@H]2CCCN21 [Compound 145, N2-(4-chloro-3-(5-cyclopropyl-1H-tetrazol-1-yl)phenyl)-N4-((7R,8aS)-5,5-dimethyloctahydroindolizin-7-yl)-5-fluoropyrimidine-2,4-diamine] | > 7.00 | 
10 | Cc1ccc(Nc2ncc(F)c(N[C@@H]3C[C@@H]4CCCN4C(C)(C)C3)n2)cc1-n1nnnc1SCCO [Compound 282, 2-(1-(5-(4-((7R,8aS)-octahydro-5,5-dimethylindolizin-7-ylamino)-5-fluoropyrimidin-2-ylamino)-2-methylphenyl)-1H-tetrazol-5-ylthio)ethanol] | > 7.00 | 
11 | Cc1cc(Nc2ncc(F)c(N[C@@H]3C[C@@H]4CCCN4C(C)(C)C3)n2)ccc1OCCO [Compound 134, 2-(4-((4-(((7R,8aS)-5,5-dimethyloctahydroindolizin-7-yl)amino)-5-fluoropyrimidin-2-yl)amino)-2-(methyl)phenoxy)ethan-1-ol] | 6.30 to 7.00 | 
12 | CC1(C)C[C@H](Nc2nc(Nc3ccc(OCC4CCO4)c(C#N)c3)ncc2F)C[C@@H]2CCCN21 (stereo partly drawn) [Compound 176, 5-(4-((7R,8aS)-5,5-dimethyloctahydroindolizin-7-ylamino)-5-fluoropyrimidin-2-ylamino)-2-(oxetan-2-ylmethoxy)benzonitrile] | 6.30 to 7.00 | 
13 | CN(C)CCOc1cc(F)c(Nc2ncc(F)c(N[C@@H]3C[C@@H]4CCCN4C(C)(C)C3)n2)cc1-n1nnn(C)c1=O [Compound 192, 1-(2-(2-(dimethylamino)ethoxy)-5-((4-(((7R,8aS)-5,5-dimethyloctahydroindolizin-7-yl)amino)-5-fluoropyrimidin-2-yl)amino)-4-fluorophenyl)-4-methyl-1,4-dihydro-5H-tetrazol-5-one] | 6.30 to 7.00 | 
14 | CC1(C)C[C@H](Nc2nc(Nc3ccc(C4CC4)c(C#N)c3)ncc2Cl)C[C@@H]2CCCN21 [Compound 155, 5-((5-chloro-4-(((7R,8aS)-5,5-dimethyloctahydroindolizin-7-yl)amino)pyrimidin-2-yl)amino)-2-cyclopropylbenzonitrile] | > 7.00 | 
15 | CC1(COc2ccc(Nc3ncc(F)c(N[C@@H]4C[C@@H]5CCCN5C(C)(C)C4)n3)cc2C#N)COC1 [Compound 173, 5-(4-((7R,8aS)-5,5-dimethyloctahydroindolizin-7-ylamino)-5-fluoropyrimidin-2-ylamino)-2-((3-methyloxetan-3-yl)methoxy)benzonitrile] | 6.30 to 7.00 | 
16 | COCCOc1ccc(Nc2ncc(F)c(N[C@@H]3C[C@@H]4CCCN4C(C)(C)C3)n2)cc1C#N [Compound 172, 5-((4-(((7R,8aS)-5,5-dimethyloctahydroindolizin-7-yl)amino)-5-fluoropyrimidin-2-yl)amino)-2-(2-methoxyethoxy)benzonitrile] | 6.30 to 7.00 | 
17 | CC(O)COc1cc(F)c(Nc2ncc(F)c(N[C@@H]3C[C@@H]4CCCN4C(C)(C)C3)n2)cc1-n1nnn(C)c1=O (stereo partly drawn) [Compound 200, 1-(5-((4-(((7R,8aS)-5,5-dimethyloctahydroindolizin-7-yl)amino)-5-fluoropyrimidin-2-yl)amino)-4-fluoro-2-(2-hydroxypropoxy)phenyl)-4-methyl-1,4-dihydro-5H-tetrazol-5-one] |  | > 7.00
18 | Cn1nnn(-c2cc(Nc3ncc(C#N)c(N[C@@H]4C[C@@H]5CCCN5C(C)(C)C4)n3)c(F)cc2OC2CCOCC2)c1=O [Compound 115, 4-(((7R,8aS)-5,5-dimethyloctahydroindolizin-7-yl)amino)-2-((2-fluoro-5-(4-methyl-5-oxo-4,5-dihydro-1H-tetrazol-1-yl)-4-((tetrahydro-2H-pyran-4-yl)oxy)phenyl)amino)pyrimidine-5-carbonitrile] | 6.00 to 6.30 | 
19 | CC1(C)C[C@H](Nc2nc(Nc3ccc(OCCO)c(-n4cnnn4)c3)ncc2F)C[C@@H]2CCCN21 [Compound 205, 2-(4-((4-(((7R,8aS)-5,5-dimethyloctahydroindolizin-7-yl)amino)-5-fluoropyrimidin-2-yl)amino)-2-(1H-tetrazol-1-yl)phenoxy)ethan-1-ol] | > 7.00 | 
20 | CC1(C)C[C@H](Nc2nc(Nc3ccc(OCC(O)CO)c(C#N)c3)ncc2F)C[C@@H]2CCCN21 (stereo partly drawn) [Compound 212, 2-(2,3-dihydroxypropoxy)-5-((4-(((7R,8aS)-5,5-dimethyloctahydroindolizin-7-yl)amino)-5-fluoropyrimidin-2-yl)amino)benzonitrile] | 5.00 to 6.00 | 
